From PubChem BioAssay (NCI) come the findings set out here.

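How tested: cells in 96-well plates exposed to compound for 48 hours at five concentrations. Abbreviation: GI50, concentration required for 50% inhibition of growth. The concentration for full growth arrest is given as TGI.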

Some test systems named below: SN12C renal; LOX IMVI melanoma; MALME-3M melanoma; SNB-19 CNS; TK-10 renal; SF-539 CNS; HCT-116 colon; SK-OV-3 ovarian; HL-60(TB) leukemia; SK-MEL-5 melanoma.
Common to all, as to assay: growth of human tumour cells (NCI), 48 h

`Cc1[nH]nc2c1N=C(c1ccccc1Cl)c1cc([N+](=O)[O-])ccc1N2`: the GI50 is 3.29 µM in the assay with SN12C renal; 1.92 µM in the assay with LOX IMVI melanoma; above 25 µM in the assay with MALME-3M melanoma; above 25 µM in the assay with SNB-19 CNS; 9.23 µM with TK-10 renal; 0.132 µM in the assay with SF-539 CNS. Also, the GI50 is 0.337 µM in the assay with HCT-116 colon, 1.62 µM with SK-OV-3 ovarian, 0.104 µM in the assay with HL-60(TB) leukemia and 0.204 µM in the assay with SK-MEL-5 melanoma. The TGI with SN12C renal is above 25 µM; in the assay on LOX IMVI melanoma, above 25 µM; with MALME-3M melanoma, above 25 µM; with SNB-19 CNS, above 25 µM; in the assay on TK-10 renal, above 25 µM; in the assay on SF-539 CNS it was above 5.27 µM. Besides, the TGI in the assay with HCT-116 colon, in the assay with SK-OV-3 ovarian, in the assay with HL-60(TB) leukemia and in the assay on SK-MEL-5 melanoma was above 25 µM each time.

As to `NC1=Nc2cc(OCCCN3Cc4ccccc4C3)c(OCC3CC3)cc2C12CCCC2`, the GI50 in the assay on SN12C renal was 3.85 µM; with LOX IMVI melanoma it was 1.51 µM; in the assay on MALME-3M melanoma, 1.73 µM; in the assay on SNB-19 CNS, 4.53 µM; with TK-10 renal, 2.31 µM; in the assay with SF-539 CNS it was 1.7 µM. Moreover, the GI50 with HCT-116 colon is 1.61 µM; in the assay with SK-OV-3 ovarian, 4.48 µM; with HL-60(TB) leukemia, 2.03 µM; in the assay on SK-MEL-5 melanoma, 1.67 µM. Further, the TGI stood at 15.2 µM in the assay on SN12C renal; 2.91 µM with LOX IMVI melanoma; 3.26 µM in the assay with MALME-3M melanoma; 16.4 µM in the assay with SNB-19 CNS; 8.16 µM with TK-10 renal; 3.17 µM with SF-539 CNS. Moreover, the TGI in the assay on HCT-116 colon came to 3.49 µM; in the assay with SK-OV-3 ovarian, 17.4 µM; in the assay with HL-60(TB) leukemia, 4.69 µM; in the assay on SK-MEL-5 melanoma it was 3.04 µM.

`C/C(=N\N=C(N)N)C(CN(C)C)C(c1ccccc1)c1c(O)c2ccccc2oc1=O` (stereo not drawn): the TGI in the assay with SN12C renal, with LOX IMVI melanoma, with MALME-3M melanoma, in the assay with SNB-19 CNS, in the assay with TK-10 renal and in the assay on SF-539 CNS was above 100 µM in each case. Also, the TGI in the assay on HCT-116 colon, with SK-OV-3 ovarian, with HL-60(TB) leukemia and in the assay on SK-MEL-5 melanoma was above 100 µM each time.

For the compound `CC1(O)CCC2(C#N)CCC1C2O` (stereo not drawn), the TGI in the assay with SN12C renal was above 100 µM; in the assay with LOX IMVI melanoma, 41.9 µM; with MALME-3M melanoma, above 100 µM; in the assay with SNB-19 CNS, above 100 µM; in the assay on TK-10 renal, above 100 µM; with SF-539 CNS, above 100 µM. The TGI with HCT-116 colon, in the assay with SK-OV-3 ovarian, in the assay on HL-60(TB) leukemia and in the assay with SK-MEL-5 melanoma was above 100 µM each time.

Turning to `Cc1ccc(Sc2sc(-c3ccccc3)nc2[P+](c2ccccc2)(c2ccccc2)c2ccccc2)cc1`, the GI50 with SN12C renal was 0.323 µM; in the assay with LOX IMVI melanoma, 0.276 µM; in the assay with MALME-3M melanoma it was 0.27 µM; in the assay on SNB-19 CNS, 0.33 µM; with TK-10 renal it was 0.336 µM; in the assay on SF-539 CNS it was 0.375 µM. Further, the GI50 in the assay on HCT-116 colon was 0.246 µM; with SK-OV-3 ovarian, 0.282 µM; with HL-60(TB) leukemia it was 0.194 µM; in the assay on SK-MEL-5 melanoma it was 0.172 µM. Besides, the TGI in the assay with SN12C renal was 1.1 µM; with LOX IMVI melanoma it was 0.901 µM; in the assay with MALME-3M melanoma it was 0.92 µM; in the assay on SNB-19 CNS it was 1.33 µM; in the assay with TK-10 renal, 1.64 µM; in the assay with SF-539 CNS it was 1.47 µM. The TGI in the assay with HCT-116 colon came to 1.11 µM; with SK-OV-3 ovarian, 0.863 µM; in the assay on HL-60(TB) leukemia, 0.521 µM; with SK-MEL-5 melanoma it was 0.313 µM.

For `C=CCn1cc(C(=O)NC(=O)NCCCCCOC(=O)CCCCCCCCCCC(=O)OCCCCCNC(=O)NC(=O)c2cn(CC=C)c(=O)n(C)c2=O)c(=O)n(C)c1=O`, the TGI in the assay on SN12C renal, in the assay on LOX IMVI melanoma, in the assay with MALME-3M melanoma, in the assay on SNB-19 CNS, in the assay with TK-10 renal and in the assay with SF-539 CNS was above 100 µM throughout. The TGI in the assay on HCT-116 colon, with SK-OV-3 ovarian, with HL-60(TB) leukemia and in the assay with SK-MEL-5 melanoma was above 100 µM throughout.

Consider `Cc1c2c(cc3c(=O)ccn(CCN(C)C)c13)c(=O)ccn2CCN(C)C`, for which the TGI in the assay on SN12C renal was 33.3 µM; with LOX IMVI melanoma, 25.3 µM; with MALME-3M melanoma, 69.1 µM; with SNB-19 CNS, 35.7 µM; in the assay with TK-10 renal it was 51.3 µM; in the assay with SF-539 CNS, 29.7 µM. Moreover, the TGI in the assay with HCT-116 colon was found to be 19.5 µM; with SK-OV-3 ovarian it was 37.5 µM; with HL-60(TB) leukemia, 41.6 µM; in the assay on SK-MEL-5 melanoma it was 34.4 µM.

Consider `C[C@H](N)C(=O)N1C[C@H](CCCB(O)O)[C@](N)(C(=O)O)C1`, for which the GI50 in the assay with SN12C renal, in the assay with LOX IMVI melanoma, in the assay with MALME-3M melanoma, in the assay on SNB-19 CNS, in the assay on TK-10 renal and with SF-539 CNS was above 100 µM throughout. Also, the GI50 in the assay on HCT-116 colon, in the assay with SK-OV-3 ovarian, in the assay on HL-60(TB) leukemia and with SK-MEL-5 melanoma was above 100 µM in each case. The TGI in the assay on SN12C renal, with LOX IMVI melanoma, in the assay with MALME-3M melanoma, in the assay on SNB-19 CNS, with TK-10 renal and in the assay with SF-539 CNS was above 100 µM throughout. In addition, the TGI in the assay with HCT-116 colon, in the assay with SK-OV-3 ovarian, in the assay with HL-60(TB) leukemia and in the assay with SK-MEL-5 melanoma was above 100 µM each time.

For `COc1ccc(OC)c2c(=S)c3ccccc3[nH]c12`, the TGI in the assay with SN12C renal is above 100 µM; in the assay on LOX IMVI melanoma it was above 100 µM; in the assay on MALME-3M melanoma it was above 100 µM; in the assay with SNB-19 CNS it was above 100 µM; with TK-10 renal it was 100 µM; in the assay on SF-539 CNS, above 100 µM. For the same compound, the TGI with HCT-116 colon is above 100 µM; in the assay with SK-OV-3 ovarian, above 100 µM; with HL-60(TB) leukemia, 57.6 µM; with SK-MEL-5 melanoma, 70.1 µM.

Turning to `CCSc1nnc(-c2ccc3ccccc3c2O)n1-c1ccc(Cl)cc1`, the GI50 in the assay on SN12C renal is above 100 µM; in the assay on LOX IMVI melanoma, 5.52 µM; in the assay on MALME-3M melanoma it was above 100 µM; in the assay with SNB-19 CNS, 5.84 µM; in the assay with SF-539 CNS it was above 100 µM; with HCT-116 colon it was 4 µM. Further, the results for the GI50 in the assay on SK-OV-3 ovarian, with HL-60(TB) leukemia and in the assay with SK-MEL-5 melanoma were 69.5 µM, 7.16 µM and 6.01 µM, respectively. In addition, the TGI in the assay with SN12C renal, in the assay on LOX IMVI melanoma, in the assay on MALME-3M melanoma, in the assay with SNB-19 CNS, in the assay with SF-539 CNS and in the assay on HCT-116 colon was above 100 µM throughout. Also, the TGI in the assay with SK-OV-3 ovarian, with HL-60(TB) leukemia and in the assay on SK-MEL-5 melanoma was above 100 µM each time.
